“And” between values parts separate entries of the source, which are not always exact repeats. Equal values may be shown once.
Key:
[1] = assay type: in vivo, human; details: ODSH adjunct to gemcitabine/nab-paclitaxel
Protocol: Treatment consisted of a series of 28-day cycles, wherein the last day of one cycle (e.g., day 28, cycle 1) was immediately followed by the first day of the next cycle (e.g., day 1, cycle 2). In each 28-day treatment cycle, patients were dosed at days 1, 8, and 15 (three weeks of medication followed by one week of rest) as follows. First, nab-paclitaxel at 125 mg/m^2 was administered as an intravenous infusion over 30 minutes.
Patients were also assessed for other side effects of chemotherapy, including fatigue, sensory neuropathy, nausea, and vomiting, each of which was graded according to severity. Grades were: 0 (normal), 1 (mild), 2 (moderate), 3 (severe) and 4 (life-threatening).

[2] = system: BxPC-3 pancreas tumor cell line; assay: BxPC-3 human pancreas tumor xenograft model: tumor weight, tumor growth inhibition (TGI); assay type: in vivo, female athymic nude mice; details: for Tumor weight, Mean / Tumor weight, Median / Tumor weight, individual mice: Group 2: ODSH 24 mg/kg BID, IV Days 1-11, SC Days 12-end
Protocol: Compounds tested in the experiment were as follows. ODSH was made by Pyramid Laboratories, Inc. (Costa Mesa, Calif.). ODSH was provided at a stock concentration of 50 mg/ml and stored at room temperature until use. ODSH was diluted in a 0.9% NaCl solution (B. Braun Medical Inc., Irvine, Calif.) to a concentration of 2.4 mg/ml to deliver 24 mg/kg, in a 10 ml/kg dose volume when administered intravenously. A concentration of 4.8 mg/ml was formulated to deliver a 24 mg/kg dose at a 5 ml/kg dose volume when administered subcutaneously. ODSH was formulated fresh prior to each dose.
Nab-paclitaxel was manufactured by Abraxis BioScience LLC (Bridgewater, N.J.) and diluted in a 0.9% NaCl solution to a concentration of 1.5 mg/ml to deliver 15 mg/kg, in a 10 ml/kg dose volume. All standard agent preparations were made fresh prior to their administration.
BxPC-3 cells were obtained and prepared as follows. The BxPC-3 pancreas tumor cell line was received from American Type Culture Collection (ATCC, Manassas, Va.). Cultures were maintained in RPMI 1640 medium (Hyclone, Logan, Utah) supplemented with 5% fetal bovine serum. The cells were housed in a 5% CO2 atmosphere. The cultures were expanded in tissue culture flasks at a 1:3 split ratio until a sufficient amount of cells were harvested.
BxPC-3 Human Pancreas Tumor Xenograft Model: Female athymic nude mice per treatment condition were inoculated subcutaneously in the right flank with 0.1 ml of a 50% RPMI 1640/50% Matrigel™ (BD Biosciences, Bedford, Mass.) mixture containing a suspension of BxPC-3 tumor cells (approximately 5×10^6 cells/mouse).
Study Director V.1.7.54k (Study Log).
Mean tumor growth inhibition (TGI) was calculated utilizing Formula A below (deaths were not included in the TGI calculations).
All statistical analyses in the xenograft study were performed with GraphPad Prism® v4 software.

[3] = ANOVA with Tukey's Multiple Comparison Test, BxPC-3 xenograft

substantially 2-O, 3-O desulfated heparin [ODSH]
Patients experiencing no more than Grade 1 side effects (fatigue, sensory neuropathy, nausea, vomiting) [1]: more than 50% | Difference in tumor weight compared to vehicle control, Day 26 [2, 3]: No significant difference | Difference in tumor weight compared to vehicle control, Day 36 [2, 3]: significant difference | Tumor weight, Mean ([2]; Day 1): 122.4 mg | Tumor weight, Median ([2]; Day 1): 22.9 mg | Tumor weight, individual mice ([2]; Day 1): 114 mg and 116 mg and 172 mg and 94 mg and 131 mg and 106 mg and 125 mg and 143 mg and 129 mg and 140 mg | Tumor weight, Mean ([2]; Day 4): 134.0 mg | Tumor weight, Median ([2]; Day 4): 28.6 mg | Tumor weight, individual mice ([2]; Day 4): 98 mg and 110 mg and 141 mg and 97 mg and 181 mg and 135 mg and 130 mg and 144 mg and 133 mg | Tumor weight, Mean ([2]; Day 8): 146.0 mg | Tumor weight, Median ([2]; Day 8): 40.4 mg | Tumor weight, individual mice ([2]; Day 8): 118 mg and 144 mg and 183 mg and 125 mg and 222 mg and 126 mg and 155 mg and 157 mg and 148 mg | Tumor weight, Mean ([2]; Day 11): 187.6 mg | Tumor weight, Median ([2]; Day 11): 162.1 mg | Tumor weight, individual mice ([2]; Day 11): 288 mg and 142 mg and 175 mg and 243 mg and 146 mg and 252 mg and 137 mg and 140 mg and 203 mg | Tumor weight, Mean ([2]; Day 15): 263.0 mg | Tumor weight, Median ([2]; Day 15): 250.0 mg | Tumor weight, individual mice ([2]; Day 15): 340 mg and 224 mg and 263 mg and 348 mg and 237 mg and 321 mg and 208 mg and 218 mg and 264 mg | Tumor weight, Mean ([2]; Day 18): 338.5 mg | Tumor weight, Median ([2]; Day 18): 304.7 mg | Tumor weight, individual mice ([2]; Day 18): 489 mg and 291 mg and 288 mg and 419 mg and 256 mg and 415 mg and 318 mg and 278 mg and 352 mg | Tumor weight, Mean ([2]; Day 22): 453.8 mg | Tumor weight, Median ([2]; Day 22): 425.4 mg | Tumor weight, individual mice ([2]; Day 22): 622 mg and 360 mg and 400 mg and 556 mg and 402 mg and 551 mg and 449 mg and 326 mg and 515 mg | Tumor weight, Mean ([2]; Day 26): 616.2 mg | Tumor weight, Median ([2]; Day 26): 551.3 mg | Tumor weight, individual mice ([2]; Day 26): 894 mg and 478 mg and 529 mg and 770 mg and 573 mg and 724 mg and 524 mg and 394 mg and 766 mg | TGI (mean tumor growth inhibition), Day 26 ([2]; Day 26 vs Day 1, compared to vehicle control, BxPC-3 xenograft, ODSH 24 mg/kg BID, oxaliplatin 10 mg/kg, gemcitabine 80 mg/kg (Table 1)): 11.5% | Tumor weight, Mean ([2]; Day 30): 882.3 mg | Tumor weight, Median ([2]; Day 30): 856.4 mg | Tumor weight, individual mice ([2]; Day 30): 1,083 mg and 756 mg and 893 mg and 1,201 mg and 820 mg and 945 mg and 764 mg and 555 mg and 1,109 mg | Tumor weight, Mean ([2]; Day 33): 1,038.6 mg | Tumor weight, Median ([2]; Day 33): 979.8 mg | Tumor weight, individual mice ([2]; Day 33): 1,218 mg and 999 mg and 961 mg (2×) and 1,309 mg and 1,087 mg and 871 mg and 733 mg and 1,340 mg | Tumor weight, Median ([2]; Day 36): 1,151.5 mg | Tumor weight, individual mice ([2]; Day 36): 1,450 mg and 1,153 mg and 1,150 mg (2×) and 1,654 mg and 1,376 mg and 1,037 mg and 836 mg and 1,823 mg | TGI (mean tumor growth inhibition), Day 36 ([2]; Day 36 vs Day 1, compared to vehicle control, BxPC-3 xenograft, ODSH 24 mg/kg BID, oxaliplatin 10 mg/kg, gemcitabine 80 mg/kg, nab-paclitaxel 15 mg/kg (Table 1)): 18.2% | Day 26 Tumor Weight ([2]; Table 14, treatment administered until Day 26): 616.2 ± 50.9 mg | Day 26 Tumor Weight ([2]; Table 15, treatment administered until Day 35): 1270.1 ± 95.5 mg
